Test results published in patent US20130039998A1, “COMPOSITIONS OF MODULATORS OF THE WNT/BETA-CATENIN PATHWAY AND BENZAMIDE AND/OR HYDROXAMIC ACID DERIVATIVES TO TREAT BIPOLAR DISORDER” (UNIVERSITY OF WASHINGTON, priority 2008, published 2013).
“Also recorded” adds a separate entry of the source. Values belong to the compound of their own block, whether it stands above or below them.

Columns and labels:
[1] = system: Wnt/β-catenin signalling (TCF/LEF transcription), HEK-293T cells; assay: pBARLS beta-catenin activated reporter (TCF/LEF transcription) in HEK-293T cells; format: cell-based, human; settings: for activation of pBARLS reporter, compound alone (FIG. 3B) / activation of pBARLS reporter in the presence of lithium (FIG. 3B): HEK293T, dose response; for activation of pBARLS reporter in the presence of lithium: 25 μM compound plus lithium 10 mM; for activation of pBAR reporter (FIG. 1B): HEK-293T cells (human)
From the text: (§1) To monitor Wnt/β-catenin signalling the beta-catenin activated reporter (BAR) system developed at the laboratory of Randall Moon, University of Washington, Seattle, Wash., was used. The BAR system contains a concatemer of twelve TCF (T-cell factor) response elements separated by unique five nucleotide linkers specifically designed to minimize recombination that can lead to loss of TCF binding sites. This series of TCF response elements is inserted upstream of Promega's minP minimal promoter completing a functional promoter that drives the transcription of firefly luciferase (pBARLS) along with a PGK promoter driving a puromycin selectable maker. These reporters were inserted between the LTRs (long terminal repeats) of a lentiviral transducing plasmid. […] The pfuBARS reporter is identical to their respective parent reporter with the exception that each TCF DNA binding element contains a two-base substitution conferring a non-functional element. The essentially identical nature of the control reporters provides the most optimal experimental control, as well as allowing for identical lentiviral titer production when generated side by side with the responsive reporter.
(§2) Cells were plated, treated, and the luciferase activity measured in a 384-well plate. The volume of culture media in each well prior to measuring luciferase activity was 40 μL. After incubation with compounds, 10 μL of Promega Firefly luciferase reagent was added using a liquid dispenser and incubated for 10 minutes at room temperature. Total luminescence was read on an Envision (Perkin Elmer) plate reader. Data was expressed relative to baseline of adding DMSO alone.

[2] = system: Wnt/β-catenin signalling (TCF/LEF transcription), HT22 cells; assay: pBARLS beta-catenin activated reporter (TCF/LEF transcription) in HT22 cells; format: cell-based, mouse; settings: for activation of pBARLS reporter in the presence of lithium / activation of transcription of pBARLS reporter, compound alone: HT22, 24 hr; for activation of pBARLS reporter in the presence of lithium: 25 μM compound plus lithium 10 mM; for activation of transcription of pBARLS reporter, compound alone: lithium 10 mM, MS-275, CI-994, SAHA 25 μM; for activation of pBAR reporter (FIG. 1B): HT22 cells (mouse)
From the text: as §1, §2

[3] = system: pfuBARS control reporter (non-functional TCF elements), HEK-293T cells
From the text: as §1, §2

GSK-3 = settings: from Ring et al. 2003 / Cline et al. 2002, cited from earlier work; for EC50: read-out: half-maximal effective concentration [EC50]
[4] = system: T1, class I and class II HDACs; assay: In vitro class I and class II HDAC inhibition; format: biochemical, human; settings: compared with valproate
T1 construct: other: HDAC1/2/3 together; other: compared with valproate
From the text: (§3) To measure the effects of compounds on HDAC activity, a homogenous, fluorimetric deacetylase assay miniaturized to 384-well plate format was used. To perform this assay, a buffered solution containing a recombinant human deacetylase was transferred to a microtiter plate using a robotic plate-filler.
(§4) Following compound transfer, a second buffered solution was transferred containing trypsin and a class-specific, tripeptide substrate (AcK-AMC) terminating in an acetyl-lysine, which is amide-coupled to 7-amino-4-methylcoumarin (AMC). Following substrate hydrolysis by the deacetylase, trypsin cleaves the terminal amide bond releasing AMC. With an excitation/emission maximum of 350-380/440-460 nm, AMC fluorescence is captured by a multilabel plate reader. For a kinetic version of the assay, fluorescence measurements was recorded every 0.5-5 minutes over 60 minutes. Data were plotted on a well-by-well basis to measure the slope of increasing fluorescence over time, corresponding to enzymatic activity. HDAC enzymes used were commercially-available (BPS Biosciences San Diego, Calif.).

HDAC1 = target: T2, HDAC1 (Homo sapiens, UniProt Q13547); assay: Fluorimetric deacetylase assay, HDAC1; format: biochemical; settings: Class I; avg n = 2 with class-specific substrates
T2 construct: purchased BPS Biosciences

HDAC5 = target: T3, HDAC5 (Homo sapiens, UniProt Q9UQL6); assay: Fluorimetric deacetylase assay, HDAC5; format: biochemical; settings: Class IIa
T3 construct: purchased BPS Biosciences

HDAC6 = HDAC6 (Homo sapiens, UniProt Q9UBN7); assay: Fluorimetric deacetylase assay, HDAC6; format: biochemical
From the text: as §3, §4

[5] = listed as Wnt3a conditioned media

T3 sequence (Q9UQL6 whole entry): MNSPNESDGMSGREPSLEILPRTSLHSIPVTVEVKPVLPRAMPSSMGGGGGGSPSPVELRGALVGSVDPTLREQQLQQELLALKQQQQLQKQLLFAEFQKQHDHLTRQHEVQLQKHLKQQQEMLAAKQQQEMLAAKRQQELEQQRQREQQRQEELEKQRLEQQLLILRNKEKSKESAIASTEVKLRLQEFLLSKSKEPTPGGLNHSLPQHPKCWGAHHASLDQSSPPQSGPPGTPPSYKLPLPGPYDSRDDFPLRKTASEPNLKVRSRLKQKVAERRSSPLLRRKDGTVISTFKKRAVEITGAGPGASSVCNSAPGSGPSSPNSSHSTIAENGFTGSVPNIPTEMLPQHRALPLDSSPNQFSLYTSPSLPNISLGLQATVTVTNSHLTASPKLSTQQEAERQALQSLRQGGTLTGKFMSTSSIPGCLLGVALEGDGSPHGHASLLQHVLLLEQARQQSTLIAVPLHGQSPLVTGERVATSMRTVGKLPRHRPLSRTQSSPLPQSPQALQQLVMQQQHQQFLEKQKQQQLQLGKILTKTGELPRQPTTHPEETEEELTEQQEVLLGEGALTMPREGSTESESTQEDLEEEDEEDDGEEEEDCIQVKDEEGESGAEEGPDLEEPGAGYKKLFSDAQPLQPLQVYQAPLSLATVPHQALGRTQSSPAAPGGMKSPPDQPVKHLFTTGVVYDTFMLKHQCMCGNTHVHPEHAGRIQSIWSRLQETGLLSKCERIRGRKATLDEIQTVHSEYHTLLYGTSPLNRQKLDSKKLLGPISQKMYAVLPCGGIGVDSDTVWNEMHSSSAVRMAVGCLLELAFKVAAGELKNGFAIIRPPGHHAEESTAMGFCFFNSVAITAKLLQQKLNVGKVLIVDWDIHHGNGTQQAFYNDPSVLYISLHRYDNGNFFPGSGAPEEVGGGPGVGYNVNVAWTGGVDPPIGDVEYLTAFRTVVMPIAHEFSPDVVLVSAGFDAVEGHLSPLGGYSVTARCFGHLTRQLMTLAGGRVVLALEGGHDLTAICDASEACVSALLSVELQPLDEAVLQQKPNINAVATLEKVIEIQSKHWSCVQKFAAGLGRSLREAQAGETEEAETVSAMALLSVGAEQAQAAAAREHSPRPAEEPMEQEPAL
T2 sequence (Q13547 whole entry): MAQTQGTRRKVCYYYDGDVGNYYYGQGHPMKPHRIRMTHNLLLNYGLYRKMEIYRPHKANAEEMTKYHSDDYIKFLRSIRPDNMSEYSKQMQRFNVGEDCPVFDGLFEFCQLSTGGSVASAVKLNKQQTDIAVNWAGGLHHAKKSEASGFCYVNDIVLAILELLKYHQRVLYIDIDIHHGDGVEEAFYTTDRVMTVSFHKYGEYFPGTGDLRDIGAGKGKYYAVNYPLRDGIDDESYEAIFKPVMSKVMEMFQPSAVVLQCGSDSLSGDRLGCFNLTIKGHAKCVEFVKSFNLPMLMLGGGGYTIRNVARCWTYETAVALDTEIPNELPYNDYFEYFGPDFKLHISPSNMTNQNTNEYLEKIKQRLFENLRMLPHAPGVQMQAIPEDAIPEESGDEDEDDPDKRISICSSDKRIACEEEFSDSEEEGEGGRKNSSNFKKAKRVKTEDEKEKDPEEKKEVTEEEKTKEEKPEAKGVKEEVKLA
HDAC6, sequence (Q9UBN7 whole entry): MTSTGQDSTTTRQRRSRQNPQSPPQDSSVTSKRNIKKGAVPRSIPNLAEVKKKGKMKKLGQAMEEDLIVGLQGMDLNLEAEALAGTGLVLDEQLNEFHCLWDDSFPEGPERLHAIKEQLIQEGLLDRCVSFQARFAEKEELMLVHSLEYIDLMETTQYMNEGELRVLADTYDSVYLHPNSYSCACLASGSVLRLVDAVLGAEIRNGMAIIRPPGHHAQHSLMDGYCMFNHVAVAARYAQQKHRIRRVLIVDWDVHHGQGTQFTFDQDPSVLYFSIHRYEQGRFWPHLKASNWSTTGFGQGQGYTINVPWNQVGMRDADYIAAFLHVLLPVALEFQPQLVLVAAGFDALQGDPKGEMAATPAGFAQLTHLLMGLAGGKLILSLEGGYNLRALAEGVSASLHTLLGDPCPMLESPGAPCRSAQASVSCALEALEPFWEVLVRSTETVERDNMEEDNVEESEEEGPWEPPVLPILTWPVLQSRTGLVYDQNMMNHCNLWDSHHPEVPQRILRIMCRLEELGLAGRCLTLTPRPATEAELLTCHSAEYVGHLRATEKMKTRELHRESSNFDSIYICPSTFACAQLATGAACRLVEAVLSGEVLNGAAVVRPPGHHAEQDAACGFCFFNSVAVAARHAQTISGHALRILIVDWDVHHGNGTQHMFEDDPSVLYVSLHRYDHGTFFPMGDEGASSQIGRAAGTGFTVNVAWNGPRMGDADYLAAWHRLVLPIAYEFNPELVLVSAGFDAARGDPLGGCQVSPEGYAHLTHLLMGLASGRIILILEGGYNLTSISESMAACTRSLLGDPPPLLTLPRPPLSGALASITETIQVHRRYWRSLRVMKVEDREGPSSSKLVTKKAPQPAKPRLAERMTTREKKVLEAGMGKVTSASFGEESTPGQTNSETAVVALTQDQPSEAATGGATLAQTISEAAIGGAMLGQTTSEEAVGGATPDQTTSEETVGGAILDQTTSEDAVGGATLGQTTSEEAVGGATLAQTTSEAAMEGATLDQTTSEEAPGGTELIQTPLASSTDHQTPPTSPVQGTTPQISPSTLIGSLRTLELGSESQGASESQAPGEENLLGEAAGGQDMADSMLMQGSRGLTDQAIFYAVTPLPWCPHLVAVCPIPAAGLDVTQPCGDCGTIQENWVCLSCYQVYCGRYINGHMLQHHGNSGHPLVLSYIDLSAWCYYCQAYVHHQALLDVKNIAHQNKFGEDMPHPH

Compound: Nc1ccccc1NC(=O)c1ccc(CNC(=O)OCc2cccnc2)cc1 [MS-275]
activation of pBARLS reporter, compound alone (FIG. 3B) ([1]; 24 hr, alone): activation on their own
activation of pBARLS reporter in the presence of lithium (FIG. 3B) ([1]; 24 hr, lithium 10 mM): synergistic activation
activation of pBARLS reporter in the presence of lithium ([1]; HEK-293T, 24 hr): strong synergistic activation of transcription; also recorded: strong synergy
activation of transcription of pBARLS reporter, compound alone ([1]; HEK-293T, 24 hr, lithium 10 mM, MS-275, CI-994, SAHA 25 μM, alone): activated transcription of the reporter; also recorded: activate transcription on their own
activation of pBARLS reporter in the presence of lithium [2]: strong synergistic activation of transcription
activation of transcription of pBARLS reporter, compound alone [2]: partially capable of activating transcription; also recorded: capable of activating transcription on its own
activity in pfuBARS control reporter, compound alone [3]: no activity
activity in pfuBARS control reporter in the presence of lithium [3]: no activity

Compound: O=[N+]([O-])c1ccc(NCCNc2ncc(-c3ncc[nH]3)c(-c3ccc(Cl)cc3Cl)n2)nc1 [CHIR-837]
selectivity for GSK-3 (GSK-3): > 5,000 fold
EC50 (GSK-3): 0.375 µM

Compound: O=C(CCCCCCC(=O)Nc1ccccc1)NO [SAHA]
activation of pBARLS reporter in the presence of lithium ([1]; HEK-293T, 24 hr): strong synergistic activation of transcription; also recorded: strong synergy
activation of pBARLS reporter in the presence of lithium [2]: strong synergistic activation of transcription
activation of transcription of pBARLS reporter, compound alone [2]: unable to activate transcription

Compound: CC(=O)Nc1ccc(C(=O)Nc2ccccc2N)cc1 [CI-994]
activity in pfuBARS control reporter, compound alone [3]: no activity
activity in pfuBARS control reporter in the presence of lithium [3]: no activity
potency on class I HDACs in comparison to valproate [4]: much more potent

Compound: Cc1[nH]c2ccccc2c1CCNCc1ccc(/C=C/C(=O)NO)cc1 [panobinostat]
activation of pBARLS reporter, compound alone (FIG. 3B) ([1]; 24 hr, alone): activation on their own
activation of pBARLS reporter in the presence of lithium (FIG. 3B) ([1]; 24 hr, lithium 10 mM): synergistic activation
potency relative to SAHA (dose responses, FIG. 3) ([1]; pBARLS reporter dose response): more potent than SAHA

Compound: Wnt3a
activation of pBAR reporter (FIG. 1B) [1]: activation
activation of pBAR reporter (FIG. 1B) [1, 5]: capable of responding
activation of pBAR reporter (FIG. 1B) [2]: activation
activation of pBAR reporter (FIG. 1B) [2, 5]: capable of responding

IC50 (HDAC1): 27 µM
IC50 (HDAC5): > 10000 µM
IC50 (HDAC6): > 10000 µM
Compound: CCCC(CCC)C(=O)O [valproate]
